Key:
[1] = target: angiotensin II receptor (Cavia porcellus); assay: Displacement of monoiodinated angiotensin II from guinea-pig adrenal gland angiotensin II receptor
[2] = target: Angiotensin II receptor (Rattus norvegicus) (UniProt P29089+P25095+P35351); assay: Inhibition of pressor response induced by Angiotensin II in Alderley Park Wistar rats after single intravenous dose; assay type: functional

| SMILES | IC50 [1] [µM] | ED50 [2] [mg/kg] |
| --- | --- | --- |
| CCCCc1nc(C(=O)OCC)c(C(=O)OCC)n1Cc1ccc(-c2ccccc2-c2nn[nH]n2)cc1 | 0.255 |  |
| CCCCc1nc2cnn(Cc3ccc(-c4ccccc4C(=O)OC)cc3)cc-2n1 | 100 |  |
| CCCCc1nc2cnnc(O)c2n1Cc1ccc(-c2ccccc2C(=O)O)cc1 |  | 6.7 |
| CCCCc1nc2cnn(C)c(=O)c2n1Cc1ccc(-c2ccccc2C(=O)O)cc1 | 10 | 47 |
| CCCCc1nc2ccccc2n1Cc1ccc(-c2ccccc2-c2nn[nH]n2)cc1 |  | 5.2 |
| CCc1nc2c(C)cc(C)nc2n1Cc1ccc(-c2ccccc2-c2nn[nH]n2)cc1 |  | 0.22 |
| CCCCc1nc2ccnc(O)c2n1Cc1ccc(-c2ccccc2-c2nn[nH]n2)cc1 | 0.016 | 0.35 |
| CCCCc1nc2c(=O)[nH][nH]c(=O)c2n1Cc1ccc(-c2ccccc2-c2nn[nH]n2)cc1 |  | 0.04 |
| CCCCc1nc(Cl)c(CO)n1Cc1ccc(-c2ccccc2-c2nnn[nH]2)cc1 |  | 0.65 |
| CCCCc1nc2cnnc(O)c2n1Cc1ccc(-c2ccccc2-c2nn[nH]n2)cc1 | 0.022 | 0.62 |
| CCCCc1nc2cnncc2n1Cc1ccc(-c2ccccc2C(=O)O)cc1 | 10 | 5.2 |

Reference: ChEMBL document CHEMBL1151528, “The synthesis of heterosubstituted benzimidazole derivatives with potent angiotensin II antagonist activity” (Bioorg Med Chem Lett, 1993)
